Results on four compounds are retold here after patent US20150284385A1, “CERTAIN DIPEPTIDYL PEPTIDASE INHIBITORS” (SHANGHAI FOCHON PHARMACEUTICAL CO LTD, priority 2012, published 2015).

Like-named read-outs stand apart in the source and are kept apart here.

One experiment deals with Recombinant human DPP-IV (Homo sapiens, UniProt P27487). The experiment is described as follows: DPP-IV assay in vitro (H-Ala-Pro-AFC fluorescence). In kind it is biochemical. The settings on record: 30 min pre-incubation, H-Ala-Pro-AFC 50 μM. On the procedure: DPP-IV Assay Solutions of test compounds in varying concentrations (10^−5 mol/L, 10^−6 mol/L, 10^−7 mol/L, 10^−8 mol/L, 10^−9 mol/L, 10^−10 mol/L, 10^−11 mol/L, and 10^−12 mol/L) were prepared in dimethyl sulfoxide (DMSO) and then diluted into assay buffer comprising: 10 mM Tris-HCl pH 8.0, 0.2 M NaCl, and 0.1% BSA. Recombinant human DPP-IV (7.8 ng/ml final concentration) was added to the dilutions and pre-incubated for 30 mins at room temperature before the reaction was initiated with H-Ala-Pro-AFC (50 μM final concentration). The total volume of the reaction mixture was 100 μl.
Inhibition constants (IC50) were calculated by GraphPad Prism.

For another experiment, the target named is T1, DPP-4 (Mus musculus, UniProt P28843).
T1 construct: Blood sample was processed to obtain plasma; from tissue; host or cells: plasma of male ICR mice
Nature of the experiment: Plasma DPP-4 activity in mice after oral dosing. In kind it is in vivo, ICR mice. The settings on record: read-out: DPP-4 Relative activity %; for activity at 1 mg/kg: oral 1 mg/kg; for activity at 3 mg/kg: mice plasma, oral 3 mg/kg. How it is done: Some of the exemplary compounds were tested in mice to assess inhibition of DPP-4 activity via plasma DPP-4 activity. Male ICR mice (25-30 g) were used for this study. All the mice were fasted at least 3 hours before study. Mice (n=6/group) received vehicle or at least one of the exemplary compounds by oral gavage. The dosing solutions were 0.15 mg/ml for the 3 mg/kg. Dosing volume was 20 mL/kg of body weight for all doses. The vehicle was distilled water. […] Blood sample was processed to obtain plasma (2000 g, 5 min, 4° C.) within 15 min after sampling.
Plasma was collected and tested by fluoremetry. Before the testing, 80 mM MgCl2 buffer was added into the 5 uL serum samples and pre-incubation for 5 minutes at room temperature, then […] of 0.1 mM substrate Gly-Pro-AMC and 20 μL of buffer were added into them. The fluorescence of the mixture was measured every 3 minutes after mixing (excitation at 380 nm; emission at 460 nm). After 6 times of measurements, a time-fluorescence cure was obtained. The slope of the curve would be the activity of DPP-4 in serum. The DPP-4 activity before administration was 100%. The relative activity of DPP-4 in serum was calculated using the formula below:
Relative DPP-4activity=DPP-4activity after dosing/DPP-4activity before dosing×100%.

Setting [1] is: Table 4 Test 2, mice plasma, 1 h after dosing.
The mark [2] stands for this setting: Table 4 Test 2, mice plasma, 2 h after dosing.
Where [3] appears, read: Table 4 Test 2, mice plasma, 4 h after dosing.
Setting [4] is: Table 4 Test 2, mice plasma, 6 h after dosing.
The mark [5] stands for this setting: Table 4 Test 2, mice plasma, 9 h after dosing.
Where [6] appears, read: Table 4 Test 1, mice plasma, 1 h after dosing.
[7] abbreviates: Table 4 Test 1, mice plasma, 2 h after dosing.
The mark [8] stands for this setting: Table 4 Test 1, mice plasma, 4 h after dosing.
Where [9] appears, read: Table 4 Test 1, mice plasma, 6 h after dosing.
[10] abbreviates: Table 4 Test 1, mice plasma, 9 h after dosing.

Recombinant human DPP-IV, sequence (P27487 whole entry): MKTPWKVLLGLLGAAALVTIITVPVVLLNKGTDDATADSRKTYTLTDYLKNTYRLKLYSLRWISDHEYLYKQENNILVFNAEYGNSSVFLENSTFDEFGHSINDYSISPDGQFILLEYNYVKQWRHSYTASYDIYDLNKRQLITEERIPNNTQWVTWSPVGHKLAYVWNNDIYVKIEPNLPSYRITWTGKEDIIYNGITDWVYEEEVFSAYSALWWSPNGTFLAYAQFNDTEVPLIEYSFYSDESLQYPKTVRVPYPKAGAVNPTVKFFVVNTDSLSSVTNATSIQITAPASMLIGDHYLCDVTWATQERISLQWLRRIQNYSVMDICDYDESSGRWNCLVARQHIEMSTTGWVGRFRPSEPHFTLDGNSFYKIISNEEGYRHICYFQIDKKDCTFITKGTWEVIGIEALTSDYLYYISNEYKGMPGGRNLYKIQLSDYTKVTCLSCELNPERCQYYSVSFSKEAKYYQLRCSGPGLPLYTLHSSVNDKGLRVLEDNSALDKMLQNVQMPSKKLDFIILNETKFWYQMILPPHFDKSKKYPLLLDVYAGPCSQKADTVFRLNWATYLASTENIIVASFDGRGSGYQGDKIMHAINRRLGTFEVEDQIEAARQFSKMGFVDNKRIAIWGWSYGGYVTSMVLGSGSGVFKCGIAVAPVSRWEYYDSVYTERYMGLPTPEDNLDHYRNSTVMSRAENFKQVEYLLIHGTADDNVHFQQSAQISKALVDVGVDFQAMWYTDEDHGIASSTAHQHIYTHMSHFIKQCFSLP
T1 sequence (P28843 37-760 limits assumed): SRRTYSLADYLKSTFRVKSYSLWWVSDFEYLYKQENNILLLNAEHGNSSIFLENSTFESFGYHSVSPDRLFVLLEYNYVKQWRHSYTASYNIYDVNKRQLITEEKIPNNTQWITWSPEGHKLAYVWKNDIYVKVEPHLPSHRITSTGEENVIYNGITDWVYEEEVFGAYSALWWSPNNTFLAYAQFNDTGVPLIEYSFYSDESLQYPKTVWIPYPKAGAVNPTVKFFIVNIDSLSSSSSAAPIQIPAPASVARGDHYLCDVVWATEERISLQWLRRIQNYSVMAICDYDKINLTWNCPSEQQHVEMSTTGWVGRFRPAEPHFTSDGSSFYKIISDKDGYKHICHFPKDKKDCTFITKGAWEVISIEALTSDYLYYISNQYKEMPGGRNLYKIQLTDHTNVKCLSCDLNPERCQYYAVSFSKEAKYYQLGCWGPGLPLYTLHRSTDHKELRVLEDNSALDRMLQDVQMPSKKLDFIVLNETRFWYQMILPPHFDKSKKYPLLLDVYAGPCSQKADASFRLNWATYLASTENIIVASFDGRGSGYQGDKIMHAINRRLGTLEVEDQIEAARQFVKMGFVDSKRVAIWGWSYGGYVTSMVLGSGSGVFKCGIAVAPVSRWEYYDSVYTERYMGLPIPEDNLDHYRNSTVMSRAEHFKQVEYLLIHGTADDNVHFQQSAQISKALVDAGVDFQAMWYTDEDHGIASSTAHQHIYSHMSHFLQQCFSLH

`N[C@H]1Cc2c(nc3cc(-c4ncon4)ccn23)C[C@@H]1c1cc(F)c(F)cc1F` [Example 3, (7R,8S)-3-(1,2,4-Oxadiazol-3-yl)-7-(2,4,5-trifluorophenyl)-6,7,8,9-tetrahydrobenzo[4,5]imidazo[1,2-a]pyridine-8-amine]: the IC50 on Recombinant human DPP-IV was determined as 1.7 nM. Moreover, the activity at 1 mg/kg was 15 ± 0.6% at DPP-4 (setting [1]); 13.6 ± 1.7% at DPP-4 (setting [2]); 8.6 ± 1.1% on DPP-4 (setting [3]); 13.8 ± 2.4% at DPP-4 (setting [4]); 11.8 ± 2.4% at DPP-4 (setting [5]); 15.6 ± 2.4% at DPP-4 (Table 4 Test 2, mice plasma, 12 h after dosing). Moreover, the activity at 1 mg/kg at DPP-4 (Table 4 Test 2, mice plasma, 24 h after dosing) was found to be 38.4 ± 4.3%. Moreover, the activity at 3 mg/kg at DPP-4 (1 h after dosing) was determined as 16 ± 2.3%; at DPP-4 (2 h after dosing), 15 ± 3%; on DPP-4 (3 h after dosing), 20 ± 1.8%; at DPP-4 (5 h after dosing) it was 26.5 ± 3.5%.

`Cc1nc(-c2ccn3c4c(nc3c2)C[C@H](c2cc(F)c(F)cc2F)[C@@H](N)C4)no1` [Example 4, (7R,8S)-3-(5-Methyl-1,2,4-oxadiazol-3-yl)-7-(2,4,5-trifluorophenyl)-6,7,8,9-tetrahydrobenzo[4,5]imidazo[1,2-a]pyridin-8-amine]: at Recombinant human DPP-IV, the IC50 is 1.9 nM. The activity at 1 mg/kg on DPP-4 (setting [1]) was 11.5 ± 1.8%; at DPP-4 (setting [2]), 9 ± 1.3%; at DPP-4 (setting [3]) it was 10.2 ± 1.8%; on DPP-4 (setting [4]) it was 10.4 ± 1.8%; on DPP-4 (setting [5]) it was 11.6 ± 1.6%. In addition, the activity at 3 mg/kg came out at 24.4 ± 2.8% on DPP-4 (1 h after dosing), 21.7 ± 1.7% on DPP-4 (2 h after dosing), 20.4 ± 2% on DPP-4 (3 h after dosing) and 28.3 ± 2.3% at DPP-4 (5 h after dosing).

Turning to `Cc1noc(-c2ccn3c4c(nc3c2)C[C@H](c2cc(F)c(F)cc2F)[C@@H](N)C4)n1` [Example 6, (7R,8S)-3-(3-Methyl-1,2,4-oxadiazol-5-yl)-7-(2,4,5-trifluorophenyl)-6,7,8,9-tetrahydrobenzo[4,5]imidazo[1,2-a]pyridin-8-amine], the IC50 at Recombinant human DPP-IV worked out at 1.9 nM. The activity at 1 mg/kg at DPP-4 (setting [6]) worked out at 16.9 ± 1.4%; at DPP-4 (setting [7]) it was 15.9 ± 1.9%; on DPP-4 (setting [8]), 15.7 ± 1%; at DPP-4 (setting [9]) it was 16 ± 1.2%; on DPP-4 (setting [10]), 19.5 ± 1.8%.

`Cn1nnc(-c2ccn3c4c(nc3c2)C[C@H](c2cc(F)c(F)cc2F)[C@@H](N)C4)n1` [Example 11, (7R,8S)-3-(2-methyl-2H-tetrazol-5-yl)-7-(2,4,5-trifluorophenyl)-6,7,8,9-tetrahydrobenzo[4,5]imidazo[1,2-a]pyridin-8-amine]: the IC50 at Recombinant human DPP-IV was found to be 3 nM. For the same compound, the activity at 1 mg/kg at DPP-4 (Table 3, mice plasma, 1 h after dosing) is 9 ± 1.4%; on DPP-4 (Table 3, mice plasma, 2 h after dosing), 11.5 ± 1.1%; at DPP-4 (Table 3, mice plasma, 4 h after dosing), 10.9 ± 2.8%; at DPP-4 (Table 3, mice plasma, 6 h after dosing) it was 11.5 ± 0.5%; on DPP-4 (Table 3, mice plasma, 9 h after dosing), 10 ± 1.3%; at DPP-4 (Table 3, mice plasma, 12 h after dosing), 11 ± 2%. Further, the activity at 1 mg/kg was found to be 14.5 ± 2.2% on DPP-4 (Table 3, mice plasma, 24 h after dosing); 9 ± 1.4% on DPP-4 (setting [6]); 11.5 ± 1.1% at DPP-4 (setting [7]); 10.9 ± 2.8% on DPP-4 (setting [8]); 11.5 ± 0.5% at DPP-4 (setting [9]); 10 ± 1.3% on DPP-4 (setting [10]). Moreover, the activity at 1 mg/kg came out at 11 ± 2.2% on DPP-4 (Table 4 Test 1, mice plasma, 12 h after dosing) and 14.5 ± 2.2% at DPP-4 (Table 4 Test 1, mice plasma, 24 h after dosing).
